{
  "source": "patent US20240132484A1",
  "about": "“BROAD SPECTRUM ANTIVIRAL COMPOUNDS TARGETING THE SKI COMPLEX” (priority 2020, published 2024)",
  "key": {"SARS2": {"system": "SARS2", "type": "cell-based, SARS-CoV-2", "details": "for Percentage Inhibition Average 1 μM / Screening data (Relative infection to DMSO controls) Average 1 μM: SARS2, 1 μM; for Screening data (Relative infection to DMSO controls) Average 1 μM / Screening data (Relative infection to DMSO controls) Average 5 μM / Screening data (Relative infection to DMSO controls) Average 10 μM / Screening data (Relative infection to DMSO controls) Average 25 μM / Screening data (Relative infection to DMSO controls) Average 50 μM / Average (relative infection to DMSO over the 5 tested concentrations): 100=DMSO control; for Percentage Inhibition Average 5 μM / Screening data (Relative infection to DMSO controls) Average 5 μM: SARS2, 5 μM; for Percentage Inhibition Average 10 μM / Screening data (Relative infection to DMSO controls) Average 10 μM: SARS2, 10 μM; for Percentage Inhibition Average 25 μM / Screening data (Relative infection to DMSO controls) Average 25 μM: SARS2, 25 μM; for Percentage Inhibition Average 50 μM / Screening data (Relative infection to DMSO controls) Average 50 μM: SARS2, 50 μM; for Average (relative infection to DMSO over the 5 tested concentrations): SARS2, average over 1 to 50 uM; for Infection Data: Percentage Infection Relative to Appropriate DMSO Control: avg background subtraction, replicate wells; for Infection Data: Average, Mean: average of Exp 1-3 (SMW475, SMW477, SMW478), n 9"}, "cells (nuclei count)": {"system": "cells (nuclei count)", "details": "for Relative cell count to DMSO controls, Average 1 μM / Relative cell count to DMSO controls, Average 5 μM / Relative cell count to DMSO controls, Average 10 μM / Relative cell count to DMSO controls, Average 25 μM / Relative cell count to DMSO controls, Average 50 μM: toxicity data, 100=DMSO control; for Relative cell count to DMSO controls, Average (for correlation analysis): average value over the 5 tested concentrations (1 to 50 uM); for Toxicity Data: Average, Mean: average of Exp 1-3 (SMW475, SMW477, SMW478), n 9"}},
  "note": "Where “and” joins values, the source holds several entries; their conditions need not be identical. Equal entries are not always repeated. Where two headings read alike, the source gives them in different places.",
  "data": [
    {"smiles": "COc1ccc(-c2[nH]ncc2C(=O)NC2CCCCCC2)cc1OC", "note": "[SILCS60]", "values": [
      {"measurement": "Percentage Inhibition Average 1 μM", "setting": "SARS2", "result": 20.62, "unit": "%"},
      {"measurement": "Screening data (Relative infection to DMSO controls) Average 1 μM", "setting": "SARS2", "result": 79.38},
      {"measurement": "Percentage Inhibition Average 5 μM", "setting": "SARS2", "result": 26.35, "unit": "%"},
      {"measurement": "Screening data (Relative infection to DMSO controls) Average 5 μM", "setting": "SARS2", "result": 73.65},
      {"measurement": "Percentage Inhibition Average 10 μM", "setting": "SARS2", "result": 26.47, "unit": "%"},
      {"measurement": "Screening data (Relative infection to DMSO controls) Average 10 μM", "setting": "SARS2", "result": 73.53},
      {"measurement": "Percentage Inhibition Average 25 μM", "setting": "SARS2", "result": 1.46, "unit": "%"},
      {"measurement": "Screening data (Relative infection to DMSO controls) Average 25 μM", "setting": "SARS2", "result": 98.54},
      {"measurement": "Percentage Inhibition Average 50 μM", "setting": "SARS2", "result": "−22.52", "unit": "%"},
      {"measurement": "Screening data (Relative infection to DMSO controls) Average 50 μM", "setting": "SARS2", "result": 122.52},
      {"measurement": "Average (relative infection to DMSO over the 5 tested concentrations)", "setting": "SARS2", "result": 89.52},
      {"measurement": "Relative cell count to DMSO controls, Average 1 μM", "setting": "cells (nuclei count)", "result": 111.59},
      {"measurement": "Relative cell count to DMSO controls, Average 5 μM", "setting": "cells (nuclei count)", "result": 110.17},
      {"measurement": "Relative cell count to DMSO controls, Average 10 μM", "setting": "cells (nuclei count)", "result": 109.31},
      {"measurement": "Relative cell count to DMSO controls, Average 25 μM", "setting": "cells (nuclei count)", "result": 96.61},
      {"measurement": "Relative cell count to DMSO controls, Average 50 μM", "setting": "cells (nuclei count)", "result": 85.19},
      {"measurement": "Relative cell count to DMSO controls, Average (for correlation analysis)", "setting": "cells (nuclei count)", "result": 102.57}
    ]},
    {"smiles": "Cc1cc(CN(CCN(C)C)Cc2ccncc2)sc1Br", "note": "[SILCS14]", "values": [
      {"measurement": "Infection Data: Percentage Infection Relative to Appropriate DMSO Control", "setting": "SARS2; 1 uM, Exp 1 (SMW475)", "result": "112.00% and 92.09% and 122.87%"},
      {"measurement": "Infection Data: Percentage Infection Relative to Appropriate DMSO Control", "setting": "SARS2; 1 uM, Exp 2 (SMW477)", "result": "91.97% and 93.96% and 99.35%"},
      {"measurement": "Infection Data: Percentage Infection Relative to Appropriate DMSO Control", "setting": "SARS2; 1 uM, Exp 3 (SMW478)", "result": "112.26% and 106.71% and 118.52%"},
      {"measurement": "Infection Data: Average, Mean", "setting": "SARS2; 1 uM", "result": 105.53, "unit": "%"},
      {"measurement": "Infection Data: Percentage Infection Relative to Appropriate DMSO Control", "setting": "SARS2; 5 uM, Exp 1 (SMW475)", "result": "112.88% and 98.55% and 115.50%"},
      {"measurement": "Infection Data: Percentage Infection Relative to Appropriate DMSO Control", "setting": "SARS2; 5 uM, Exp 2 (SMW477)", "result": "105.78% and 98.21% and 86.55%"},
      {"measurement": "Infection Data: Percentage Infection Relative to Appropriate DMSO Control", "setting": "SARS2; 5 uM, Exp 3 (SMW478)", "result": "109.15% and 113.38% and 106.22%"},
      {"measurement": "Infection Data: Average, Mean", "setting": "SARS2; 5 uM", "result": 105.13, "unit": "%"},
      {"measurement": "Infection Data: Percentage Infection Relative to Appropriate DMSO Control", "setting": "SARS2; 10 uM, Exp 1 (SMW475)", "result": "92.53% and 120.55% and 101.62%"},
      {"measurement": "Infection Data: Percentage Infection Relative to Appropriate DMSO Control", "setting": "SARS2; 10 uM, Exp 2 (SMW477)", "result": "84.89% and 81.65% and 69.99%"},
      {"measurement": "Infection Data: Percentage Infection Relative to Appropriate DMSO Control", "setting": "SARS2; 10 uM, Exp 3 (SMW478)", "result": "92.27% and 101.81% and 99.27%"},
      {"measurement": "Infection Data: Average, Mean", "setting": "SARS2; 10 uM", "result": 93.84, "unit": "%"},
      {"measurement": "Infection Data: Percentage Infection Relative to Appropriate DMSO Control", "setting": "SARS2; 25 uM, Exp 1 (SMW475)", "result": "11.84% and 13.81% and 11.60%"},
      {"measurement": "Infection Data: Percentage Infection Relative to Appropriate DMSO Control", "setting": "SARS2; 25 uM, Exp 2 (SMW477)", "result": "19.70% and 19.93% and 22.53%"},
      {"measurement": "Infection Data: Percentage Infection Relative to Appropriate DMSO Control", "setting": "SARS2; 25 uM, Exp 3 (SMW478)", "result": "9.11% and 11.10% and 12.21%"},
      {"measurement": "Infection Data: Average, Mean", "setting": "SARS2; 25 uM", "result": 14.65, "unit": "%"},
      {"measurement": "Infection Data: Percentage Infection Relative to Appropriate DMSO Control", "setting": "SARS2; 50 uM, Exp 1 (SMW475)", "result": "2.09% and 3.52% and 1.22%"},
      {"measurement": "Infection Data: Percentage Infection Relative to Appropriate DMSO Control", "setting": "SARS2; 50 uM, Exp 2 (SMW477)", "result": "1.91% and −0.25% and −0.24%"},
      {"measurement": "Infection Data: Percentage Infection Relative to Appropriate DMSO Control", "setting": "SARS2; 50 uM, Exp 3 (SMW478)", "result": "3.06% and 0.62% and 3.25%"},
      {"measurement": "Infection Data: Average, Mean", "setting": "SARS2; 50 uM", "result": 1.69, "unit": "%"},
      {"measurement": "Percentage Inhibition Average 1 μM", "setting": "SARS2", "result": "−5.53", "unit": "%"},
      {"measurement": "Screening data (Relative infection to DMSO controls) Average 1 μM", "setting": "SARS2", "result": 105.53},
      {"measurement": "Percentage Inhibition Average 5 μM", "setting": "SARS2", "result": "−5.13", "unit": "%"},
      {"measurement": "Screening data (Relative infection to DMSO controls) Average 5 μM", "setting": "SARS2", "result": 105.13},
      {"measurement": "Percentage Inhibition Average 10 μM", "setting": "SARS2", "result": 6.16, "unit": "%"},
      {"measurement": "Screening data (Relative infection to DMSO controls) Average 10 μM", "setting": "SARS2", "result": 93.84},
      {"measurement": "Percentage Inhibition Average 25 μM", "setting": "SARS2", "result": 85.35, "unit": "%"},
      {"measurement": "Screening data (Relative infection to DMSO controls) Average 25 μM", "setting": "SARS2", "result": 14.65},
      {"measurement": "Percentage Inhibition Average 50 μM", "setting": "SARS2", "result": 98.31, "unit": "%"},
      {"measurement": "Screening data (Relative infection to DMSO controls) Average 50 μM", "setting": "SARS2", "result": 1.69},
      {"measurement": "Average (relative infection to DMSO over the 5 tested concentrations)", "setting": "SARS2", "result": 64.17},
      {"measurement": "Toxicity Data: Average, Mean", "setting": "cells (nuclei count); 1 uM", "result": 105.49, "unit": "%"},
      {"measurement": "Relative cell count to DMSO controls, Average 1 μM", "setting": "cells (nuclei count)", "result": 105.49},
      {"measurement": "Toxicity Data: Average, Mean", "setting": "cells (nuclei count); 5 uM", "result": 103.93, "unit": "%"},
      {"measurement": "Relative cell count to DMSO controls, Average 5 μM", "setting": "cells (nuclei count)", "result": 103.93},
      {"measurement": "Toxicity Data: Average, Mean", "setting": "cells (nuclei count); 10 uM", "result": 108.29, "unit": "%"},
      {"measurement": "Relative cell count to DMSO controls, Average 10 μM", "setting": "cells (nuclei count)", "result": 108.29},
      {"measurement": "Toxicity Data: Average, Mean", "setting": "cells (nuclei count); 25 uM", "result": 139.75, "unit": "%"},
      {"measurement": "Relative cell count to DMSO controls, Average 25 μM", "setting": "cells (nuclei count)", "result": 139.75},
      {"measurement": "Toxicity Data: Average, Mean", "setting": "cells (nuclei count); 50 uM", "result": 16.80, "unit": "%"},
      {"measurement": "Relative cell count to DMSO controls, Average 50 μM", "setting": "cells (nuclei count)", "result": 16.8},
      {"measurement": "Relative cell count to DMSO controls, Average (for correlation analysis)", "setting": "cells (nuclei count)", "result": 94.85}
    ]}
  ]
}
